# Patent publication US20260014092A1, “EXTRACELLULAR VESICLES FROM MICROALGAE, THEIR USE FOR VACCINES AND FOR IMMUNOMODULATION” (AGS THERAPEUTICS SAS, priority 2023, published 2026)
# Values joined by “and” are separate entries in the source; they are usually repeats but may differ in a detail not shown here. Identical values can stand only once. In the oligonucleotide strings, read from the 5' end, every base follows the letter of its sugar. An asterisk marks phosphorothioate; unmarked linkages are phosphodiester. Other units and linkages are bracketed, terminal groups are in braces. A string of capitals states the bases alone. d = 2'-deoxy (DNA)
# Experiments:
# [1] = tested on: DSS-induced acute experimental colitis; assay: DSS-induced acute colitis (IBD model): Disease Activity Index (DAI); format: in vivo, C57BL/6 female mice; set-up: scale not given here; conditions: i.r.
# Description: In mice, the disease can be induced by the treatment with Dextran Sodium Sulfate (DSS) to create a disease model for the evaluation of experimental therapies. Thus, the treatment of mice suffering from DSS-induced acute experimental colitis is a widely used animal model for the evaluation of therapies against the IBD disease. In our case, acute colitis was induced in mice by DSS 3% in drinking water for eight days. […] All handling of animals was conducted carefully to reduce stress to the minimum. All the experiments were performed in compliance with the guidelines of the French Ministry of Agriculture for experiments with laboratory animals.
# Animals were randomized before treatment group's allocation based on body weight. The disease was induced by administration of DSS in drinking water (3%, w/v, MW: 40000, TdB Consultancy AB) in C57BL/6 female mice at 9 weeks of age. Mice were administered with test compounds either at D3 and D6 (M1, M3 and M5 intrarectal), or daily from D3 to D6 (M2 and M4, per os). Experimental groups were as follows: seven animals per group; a total of 49 mice.
# Mice were euthanized at D8; samples were harvested to determine the extent of intestinal inflammation using various quantitative and semi quantitative methods including body weight evolution, clinical score (Disease Activity index; DAI, Table 13, below), large intestine measurement, cytokine analysis in colon and/or ileum tissue (TNFα, TGFβ, IFNα, IFNγ, IL-6 and IL-17A) and intestinal and colon histopathology for inflammation analysis, as follows and as summarized in Table 14, below.
# In-Life Samples (all groups) • Bodyweight (daily) • Disease Activity Index (DAI) (diarrhea and blood in stool)
# The life samples were recovered every day: i. body weight, ii. diarrhea, and iii. blood in stool and used to determine the disease activity index (DAI). The results are summarized in Table 33, for each animal in each group for seven consecutive days.
# [2] = cited from earlier work
compound,measurement,setting,value
"cobitolimob (DNA GGAACAGTTCGTCCATGGC; listed as DNA, chemistry not given here) [ODNX]","Cumulative score (DAI), Mean","[1]; D 0, group mean, D 3 and D 6, 100 μg/mouse",0.00
same,Cumulative score (DAI),"[1]; D 0, individual mice, D 3 and D 6, 100 μg/mouse",0
same,"Cumulative score (DAI), Mean","[1]; D 1, group mean, D 3 and D 6, 100 μg/mouse",0.00
same,Cumulative score (DAI),"[1]; D 1, individual mice, D 3 and D 6, 100 μg/mouse",0
same,"Cumulative score (DAI), Mean","[1]; D 2, group mean, D 3 and D 6, 100 μg/mouse",0.14
same,Cumulative score (DAI),"[1]; D 2, individual mice, D 3 and D 6, 100 μg/mouse",0 (6×) and 1
same,"Cumulative score (DAI), Mean","[1]; D 3, group mean, D 3 and D 6, 100 μg/mouse",0.57
same,Cumulative score (DAI),"[1]; D 3, individual mice, D 3 and D 6, 100 μg/mouse",0 (5×) and 3 and 1
same,"Cumulative score (DAI), Mean","[1]; D 4, group mean, D 3 and D 6, 100 μg/mouse",2.43
same,Cumulative score (DAI),"[1]; D 4, individual mice, D 3 and D 6, 100 μg/mouse",5 and 3 (2×) and 0 (2×) and 2 and 4
same,"Cumulative score (DAI), Mean","[1]; D 5, group mean, D 3 and D 6, 100 μg/mouse",4.14
same,Cumulative score (DAI),"[1]; D 5, individual mice, D 3 and D 6, 100 μg/mouse",4 (3×) and 5 (2×) and 1 and 6
same,"Cumulative score (DAI), Mean","[1]; D 6, group mean, D 3 and D 6, 100 μg/mouse",5.71
same,Cumulative score (DAI),"[1]; D 6, individual mice, D 3 and D 6, 100 μg/mouse",7 and 6 and 4 and 5 (2×) and 3 and 10
same,"Cumulative score (DAI), Mean","[1]; D 7, group mean, D 3 and D 6, 100 μg/mouse",7.43
same,Cumulative score (DAI),"[1]; D 7, individual mice, D 3 and D 6, 100 μg/mouse",10 (2×) and 7 and 5 and 6 (2×) and 8
ODN 1585 (DNA dG*dG*dGdGdTdCdAdAdCdGdTdTdGdAdG*dG*dG*dG*dG*dG) [ODNA],"Cumulative score (DAI), Mean","[1]; D 0, group mean, D 3 and D 6, 50 μg/mouse",0.00
same,Cumulative score (DAI),"[1]; D 0, individual mice, D 3 and D 6, 50 μg/mouse",0
same,"Cumulative score (DAI), Mean","[1]; D 1, group mean, D 3 and D 6, 50 μg/mouse",0.14
same,Cumulative score (DAI),"[1]; D 1, individual mice, D 3 and D 6, 50 μg/mouse",0 (6×) and 1
same,"Cumulative score (DAI), Mean","[1]; D 2, group mean, D 3 and D 6, 50 μg/mouse",0.14
same,Cumulative score (DAI),"[1]; D 2, individual mice, D 3 and D 6, 50 μg/mouse",0 (6×) and 1
same,"Cumulative score (DAI), Mean","[1]; D 3, group mean, D 3 and D 6, 50 μg/mouse",0.14
same,Cumulative score (DAI),"[1]; D 3, individual mice, D 3 and D 6, 50 μg/mouse",0 (6×) and 1
same,"Cumulative score (DAI), Mean","[1]; D 4, group mean, D 3 and D 6, 50 μg/mouse",1.71
same,Cumulative score (DAI),"[1]; D 4, individual mice, D 3 and D 6, 50 μg/mouse",2 and 5 and 3 and 1 (2×) and 0 (2×)
same,"Cumulative score (DAI), Mean","[1]; D 5, group mean, D 3 and D 6, 50 μg/mouse",4.14
same,Cumulative score (DAI),"[1]; D 5, individual mice, D 3 and D 6, 50 μg/mouse",2 and 8 and 4 (2×) and 3 (2×) and 5
same,"Cumulative score (DAI), Mean","[1]; D 6, group mean, D 3 and D 6, 50 μg/mouse",6.14
same,Cumulative score (DAI),"[1]; D 6, individual mice, D 3 and D 6, 50 μg/mouse",7 (4×) and 6 (2×) and 3
same,"Cumulative score (DAI), Mean","[1]; D 7, group mean, D 3 and D 6, 50 μg/mouse",6.71
same,Cumulative score (DAI),"[1]; D 7, individual mice, D 3 and D 6, 50 μg/mouse",8 (3×) and 7 (2×) and 6 and 3
CCCCCCCCCCCCCCCCCCCCCC[N+]1=C(/C=C/C=C2/N(CCCCCCCCCCCCCC)c3ccccc3C2(C)C)C(C)(C)c2ccccc21.[I-] [PKH26],in vivo half-life,[2],over 100 days
